Assay results taken from the supplement of paper PMC8671470.
± gives the standard deviation of the averaged measurements.

Columns and labels:
Details in all cases: 72 h
NOMO-1 [1] = system: NOMO-1
Method in brief: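 Fifteen myeloid leukaemia lines were incubated for 72 h at 37 °C with 5% CO2 across five tenfold doses from 1 to 10,000 nM, in duplicate. ATP luminescence was normalised to vehicle and to a positive control at 10 µM and fitted with a four-parameter log-logistic model. The IC50 came from these dose–response fits.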

HL-60 [2] = experiment: cell viability (% survival relative to DMSO control); higher = less cytotoxic
Method in brief: (§1)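 In 384-well plates, the full library was rescreened in duplicate on HL-60 cells in RPMI 1640 with 10% FBS, at 1–10,000 nM in five tenfold concentrations, for 72 h at 37 °C, 5% CO2. Each run also held DMSO or 100 nM of one of three metabolic inhibitors. Viability was measured by CellTiter-Glo and normalised to DMSO wells and to wells with proteasome inhibitor, present at 10 μM. Any area under the curve comes from four-parameter log-logistic fitting with drc and PharmacoGx.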

BV-173 = experiment: cell viability (% survival relative to DMSO control, bortezomib = 0%); higher = less cytotoxic
Method in brief: (§2)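 Fifteen myeloid leukaemia cell lines were exposed to compounds at 1, 10, 100, 1000 or 10000 nM in 384-well plates for 72 h at 37 °C and 5% CO2. Viability was read by CellTiter-Glo luminescence and normalised, with vehicle as 100% and a 10 µM positive control as 0%. Values are percent survival averaged over duplicates.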

HEL = experiment: as above
Method in brief: as §2

HL-60 [3] = experiment: as above
Method in brief: as §2

K-562 = experiment: as above
Method in brief: as §2

KCL-22 = experiment: as above
Method in brief: as §2

KG-1 = experiment: as above
Method in brief: as §2

KU-812 = experiment: as above
Method in brief: as §2

LAMA-84 = experiment: as above
Method in brief: as §2

ML-2 = experiment: as above
Method in brief: as §2

MOLM-13 = experiment: as above
Method in brief: as §2

MV4-11 = experiment: as above
Method in brief: as §2

Mono-Mac-6 = experiment: as above
Method in brief: as §2

NOMO-1 [4] = experiment: as above
Method in brief: as §2

SHI-1 = experiment: as above
Method in brief: as §2

THP-1 = experiment: as above
Method in brief: as §2

HL-60 [5] = experiment: area under dose-response curve (viability, 1 nM-10 uM) (fraction (0-1)); higher = more sensitive
Method in brief: as §1

NCc1ccc(S(N)(=O)=O)cc1 [4-Homosulfanilamide]
Details | IC50 (cell viability) [µM]
NOMO-1 [1] | > 10

cell viability [%], HL-60 [2]
Details | 0.001 µM | 0.01 µM | 0.1 µM | 1 µM | 10 µM
co-treatment: AZD3965 100 nM | 102 ± 3.3 | 106 ± 5.2 | 99.06 ± 0.68 | 95.9 ± 1.2 | 99.2 ± 4.8
co-treatment: DMSO vehicle | 103.6 ± 0.27 | 105 ± 4.4 | 100 ± 3.1 | 101 ± 2.8 | 96.4 ± 2
co-treatment: GSK2194069 100 nM | 101 ± 4.4 | 103 ± 6.2 | 98.5 ± 5.5 | 96.9 ± 4.6 | 97.5 ± 5.8
co-treatment: pictilisib 100 nM | 98.6 ± 3.8 | 107 ± 3.1 | 97.5 ± 1.2 | 95.5 ± 8.2 | 98.3 ± 6.2

Details | area under dose-response curve, co-treatment: AZD3965 100 nM | area under dose-response curve, co-treatment: DMSO vehicle | area under dose-response curve, co-treatment: GSK2194069 100 nM | area under dose-response curve, co-treatment: pictilisib 100 nM | cell viability, 1 nM [%] | cell viability, 10 nM [%] | cell viability, 100 nM [%] | cell viability, 1000 nM [%] | cell viability, 10000 nM [%]
BV-173 | – | – | – | – | 96.7 | 85.9 | 91.7 | 96.6 | 97.6
HEL | – | – | – | – | 94.2 | 71.2 | 99.3 | 98 | 106
HL-60 [3] | – | – | – | – | 88.1 | 97 | 109 | 82.1 | 110
HL-60 [5] | < 0.0301 | < 0.0301 | < 0.0301 | < 0.0301 | – | – | – | – | –
K-562 | – | – | – | – | 85.1 | 90 | 87.5 | 104 | 102
KCL-22 | – | – | – | – | 99.7 | 107 | 103 | 103 | 106
KG-1 | – | – | – | – | 91.4 | 96 | 97.7 | 99.1 | 96.6
KU-812 | – | – | – | – | 97.9 | 93.1 | 96.3 | 100 | 98.1
LAMA-84 | – | – | – | – | 99.5 | 97.7 | 94.7 | 99.3 | 100
ML-2 | – | – | – | – | 90.9 | 92.3 | 94.7 | 91.8 | 102
MOLM-13 | – | – | – | – | 80.7 | 93.2 | 87.3 | 80 | 105
MV4-11 | – | – | – | – | 93.9 | 87.5 | 90.2 | 89.9 | 106
Mono-Mac-6 | – | – | – | – | 107 | 101 | 106 | 96 | 92.3
NOMO-1 [4] | – | – | – | – | 97 | 96.1 | 98.3 | 99.8 | 100
SHI-1 | – | – | – | – | 96.8 | 107 | 104 | 102 | 111
THP-1 | – | – | – | – | 98.5 | 92.5 | 105 | 96.2 | 99.5
